Assay results: US20230295157A1, “3-(1H-IMIDAZOL-2-YL)-2,3,8,8A-TETRAHYDROINDOLIZIN-5(1H)-ONE DERIVATIVES USEFUL AS FACTOR XIA INHIBITORS” (JANSSEN PHARMACEUTICA NV, priority 2020, published 2023)
Read-outs that look alike come from different tables or passages of the source.

Experiments:
[1] = molecular target: human plasma kallikrein (Homo sapiens (Human), UniProt P03952); assay: Kallikrein inhibition assay (FLINT) utilizing a quenched AMC peptide substrate; format: biochemical; settings: 30 min preincubation, read-out: Kallikrein Kin Inh IC50
In short: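 Enzyme (2 nM final) pre-incubated 30 min at room temperature with compound (11-point, 3-fold, top 1 μM, 2% DMSO), then 50 μM Z-Gly-Pro-Arg-AMC added in Tris pH 7.5 buffer. Kinetic fluorescence 340/440 nm every 5 min over 30 min; IC50 from 4-parameter logistic fit.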

[2] = molecular target: Factor XIa (Homo sapiens (Human), UniProt P03951); assay: Factor XIa inhibition assay (FLINT) utilizing a fluorophore-quencher pair peptide substrate; format: biochemical; settings: 30 min preincubation, kinetic reads over 30 min, read-out: FXIa Kin Inh IC50
In short: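 FXIa ([…]) preincubated 30 min with compound (11-point 3-fold dilution, top 100 nM, 2% DMSO), then 15 μM quenched FXI Arg146-based peptide added; Tris pH 7.5, CaCl2, BSA, CHAPS. Fluorescence 485/520 nm read kinetically every 5 min over 30 min at RT; IC50 by 4-parameter fit.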

[3] = kinetic reads over 30 min, Z-Gly-Pro-Arg-AMC substrate 50 μM
[4] = 5Fam-KLTRAETV-K5Tamra substrate 15 μM

Sequence of Factor XIa (P03951 388-625): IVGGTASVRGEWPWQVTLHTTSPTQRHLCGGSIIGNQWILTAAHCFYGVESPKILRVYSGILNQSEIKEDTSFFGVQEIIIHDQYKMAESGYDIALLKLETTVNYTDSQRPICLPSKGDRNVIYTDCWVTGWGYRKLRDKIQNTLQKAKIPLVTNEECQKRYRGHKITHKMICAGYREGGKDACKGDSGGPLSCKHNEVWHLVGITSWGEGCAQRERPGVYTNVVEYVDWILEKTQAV
Sequence of Factor XIa (P03951 19-387 partner): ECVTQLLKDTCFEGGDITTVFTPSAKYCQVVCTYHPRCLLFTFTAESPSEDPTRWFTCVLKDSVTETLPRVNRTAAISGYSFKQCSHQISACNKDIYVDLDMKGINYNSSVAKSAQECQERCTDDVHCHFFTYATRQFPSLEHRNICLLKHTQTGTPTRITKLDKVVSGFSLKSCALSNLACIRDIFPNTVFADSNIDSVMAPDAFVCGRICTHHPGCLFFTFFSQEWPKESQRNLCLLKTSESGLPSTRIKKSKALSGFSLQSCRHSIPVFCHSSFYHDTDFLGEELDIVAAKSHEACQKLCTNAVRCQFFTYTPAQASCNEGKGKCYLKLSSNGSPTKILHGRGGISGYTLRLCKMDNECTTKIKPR
Sequence of human plasma kallikrein (P03952 391-638): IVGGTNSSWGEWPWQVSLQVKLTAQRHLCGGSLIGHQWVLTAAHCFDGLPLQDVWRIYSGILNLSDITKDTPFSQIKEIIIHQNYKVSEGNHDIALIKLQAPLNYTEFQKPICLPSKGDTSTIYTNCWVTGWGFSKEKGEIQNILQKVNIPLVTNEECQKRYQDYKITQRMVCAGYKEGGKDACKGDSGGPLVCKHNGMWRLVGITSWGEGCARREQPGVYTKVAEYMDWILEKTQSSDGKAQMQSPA
Sequence of human plasma kallikrein (P03952 20-390 partner): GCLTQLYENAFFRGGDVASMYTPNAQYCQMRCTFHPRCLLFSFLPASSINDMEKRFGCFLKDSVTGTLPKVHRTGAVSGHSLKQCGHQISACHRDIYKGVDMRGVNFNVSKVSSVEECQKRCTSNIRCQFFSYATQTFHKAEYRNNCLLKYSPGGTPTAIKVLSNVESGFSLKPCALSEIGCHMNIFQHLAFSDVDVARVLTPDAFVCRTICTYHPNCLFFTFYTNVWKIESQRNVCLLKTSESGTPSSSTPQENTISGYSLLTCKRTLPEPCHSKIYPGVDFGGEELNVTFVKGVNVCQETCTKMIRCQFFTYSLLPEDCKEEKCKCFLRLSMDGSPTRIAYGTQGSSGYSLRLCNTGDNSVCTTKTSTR

SMILES	IC50 [1, 3] [µM]	IC50 ([2]; 5Fam-[…]-K5Tamra substrate 15 μM) [nM]	IC50 [2, 4] [nM]	IC50 ([1]; μM, kinetic reads) [µM]
CNc1ccc(-c2cnc([C@@H]3CC[C@@H]4CC(c5cc(Cl)ccc5-n5cnnn5)=CC(=O)N43)[nH]2)c(F)n1 (single isomer, unassigned) [Example 98, (3S*,8aR)-7-(5-chloro-2-(1H-tetrazol-1-yl)phenyl)-3-(5-(2-fluoro-6-(methylamino)pyridin-3-yl)-1H-imidazol-2-yl)-2,3,8,8a-tetrahydroindolizin-5(1H)-one]	0.009	0.6		
CCOC(=O)Nc1cnccc1-c1c[nH]c([C@@H]2CC[C@H]3CC(c4c(-n5cnnn5)ccc(Cl)c4F)=CC(=O)N32)n1 [Example 263, Ethyl N-[4-[2-[(3S,8aS)-7-[3-chloro-2-fluoro-6-(tetrazol-1-yl)phenyl]-5-oxo-2,3,8,8a-tetrahydro-1H-indolizin-3-yl]-1H-imidazol-4-yl]-3-pyridyl]carbamate]	0.0337		2.3	
O=C1C=C(c2c(-n3cnnn3)ccc(Cl)c2F)C[C@@H]2CC[C@@H](c3ncc(-c4ccc5[nH]c(=O)[nH]c5c4)[nH]3)N12 [Example 292, 5-(2-((3S,8aS)-7-(3-Chloro-2-fluoro-6-(1H-tetrazol-1-yl)phenyl)-5-oxo-1,2,3,5,8,8a-hexahydroindolizin-3-yl)-1H-imidazol-5-yl)-1,3-dihydro-2H-benzo[d]imidazol-2-one]	0.0007		0.3	
Cn1ccnc1-c1c[nH]c([C@@H]2CCC3CC(c4c(-n5cnnn5)ccc(Cl)c4F)=CC(=O)N32)n1 (stereo partly drawn) [Example 334, (3S)-7-(3-chloro-2-Fluoro-6-(1H-tetrazol-1-yl)phenyl)-3-(1-methyl-1H,1′H-[2,4′-biimidazol]-2′-yl)-2,3,8,8a-tetrahydroindolizin-5(1H)-one]			211	7.3
Nc1ccnn1-c1nccc(-c2c[nH]c([C@@H]3CC[C@@H]4CC(c5c(-n6cnnn6)ccc(Cl)c5F)=CC(=O)N43)n2)c1F [Example 68]	0.058		30	
Nc1noc2ccc(-c3cnc([C@@H]4CC[C@@H]5CC(c6c(-n7cnnn7)ccc(Cl)c6F)=CC(=O)N54)[nH]3)cc12 [Example 201, (3S,8aR)-3-(5-(3-aminobenzo[d]isoxazol-5-yl)-1H-imidazol-2-yl)-7-(3-chloro-2-fluoro-6-(1H-tetrazol-1-yl)phenyl)-2,3,8,8a-tetrahydroindolizin-5(1H)-one]	0.0069		9.1	
